{
  "source": "patent US8192962B2",
  "about": "“Processes for detecting toxic substances” (Daikin Industries, Ltd., priority 2001, dated 2012)",
  "tested_on": "Unknown protein yeast genes",
  "assay": "DNA chip mRNA expression in yeast, unknown protein yeast genes (Table 1)",
  "type": "cell-based, Saccharomyces cerevisiae S288C",
  "outline": "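Chemical exposure: 2 h, log-phase S. cerevisiae S288C, YPD, 25° C., dose set to inhibit growth without death. Profiling: mRNA labeled by reverse transcription with Cy3- or Cy5-dUTP, hybridized to whole-genome array. Output: fluorescence ratio against untreated culture.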",
  "data": [
    {"smiles": "S=C([S-])NCCNC(=S)[S-].[Zn+2]", "note": "[(11), zinc N,N′-ethylenebis(dithiocarbamate)]", "values": [
      {"measurement": "The level of expressed mRNA in the presence of chemical substance/The level of expressed mRNA in the absence of chemical substance", "setting": "yeast gene YAL053W, incubated two hours with chemical substance", "value": 2.3},
      {"measurement": "The level of expressed mRNA in the presence of chemical substance/The level of expressed mRNA in the absence of chemical substance", "setting": "yeast gene YBL048W", "value": 2.0},
      {"measurement": "The level of expressed mRNA in the presence of chemical substance/The level of expressed mRNA in the absence of chemical substance", "setting": "yeast gene YBL107C", "value": 2.9},
      {"measurement": "The level of expressed mRNA in the presence of chemical substance/The level of expressed mRNA in the absence of chemical substance", "setting": "yeast gene YDL072C, incubated two hours with chemical substance", "value": 1.4},
      {"measurement": "The level of expressed mRNA in the presence of chemical substance/The level of expressed mRNA in the absence of chemical substance", "setting": "yeast gene YDL204W, incubated two hours with chemical substance", "value": 3.2},
      {"measurement": "The level of expressed mRNA in the presence of chemical substance/The level of expressed mRNA in the absence of chemical substance", "setting": "yeast gene YDL222C, incubated two hours with chemical substance", "value": 2.6},
      {"measurement": "The level of expressed mRNA in the presence of chemical substance/The level of expressed mRNA in the absence of chemical substance", "setting": "yeast gene YDR330W, incubated two hours with chemical substance", "value": 0.9},
      {"measurement": "The level of expressed mRNA in the presence of chemical substance/The level of expressed mRNA in the absence of chemical substance", "setting": "yeast gene YDR391C, incubated two hours with chemical substance", "value": 1.9},
      {"measurement": "The level of expressed mRNA in the presence of chemical substance/The level of expressed mRNA in the absence of chemical substance", "setting": "yeast gene YDR411C, incubated two hours with chemical substance", "value": 1.3},
      {"measurement": "The level of expressed mRNA in the presence of chemical substance/The level of expressed mRNA in the absence of chemical substance", "setting": "yeast gene YDR511W, incubated two hours with chemical substance", "value": 1.2},
      {"measurement": "The level of expressed mRNA in the presence of chemical substance/The level of expressed mRNA in the absence of chemical substance", "setting": "yeast gene YDR545W, incubated two hours with chemical substance", "value": 0.7},
      {"measurement": "The level of expressed mRNA in the presence of chemical substance/The level of expressed mRNA in the absence of chemical substance", "setting": "yeast gene YEL001C, incubated two hours with chemical substance", "value": 1.2},
      {"measurement": "The level of expressed mRNA in the presence of chemical substance/The level of expressed mRNA in the absence of chemical substance", "setting": "yeast gene YER004W, incubated two hours with chemical substance", "value": 2.2},
      {"measurement": "The level of expressed mRNA in the presence of chemical substance/The level of expressed mRNA in the absence of chemical substance", "setting": "yeast gene YER035W, incubated two hours with chemical substance", "value": 1.4},
      {"measurement": "The level of expressed mRNA in the presence of chemical substance/The level of expressed mRNA in the absence of chemical substance", "setting": "yeast gene YER079W, incubated two hours with chemical substance", "value": 2.1},
      {"measurement": "The level of expressed mRNA in the presence of chemical substance/The level of expressed mRNA in the absence of chemical substance", "setting": "yeast gene YER106W, incubated two hours with chemical substance", "value": 1.0},
      {"measurement": "The level of expressed mRNA in the presence of chemical substance/The level of expressed mRNA in the absence of chemical substance", "setting": "yeast gene YER158C, incubated two hours with chemical substance", "value": 2.3},
      {"measurement": "The level of expressed mRNA in the presence of chemical substance/The level of expressed mRNA in the absence of chemical substance", "setting": "yeast gene YER163C, incubated two hours with chemical substance", "value": 1.6},
      {"measurement": "The level of expressed mRNA in the presence of chemical substance/The level of expressed mRNA in the absence of chemical substance", "setting": "yeast gene YER175C, incubated two hours with chemical substance", "value": 1.1},
      {"measurement": "The level of expressed mRNA in the presence of chemical substance/The level of expressed mRNA in the absence of chemical substance", "setting": "yeast gene YFL006W, incubated two hours with chemical substance", "value": 1.2},
      {"measurement": "The level of expressed mRNA in the presence of chemical substance/The level of expressed mRNA in the absence of chemical substance", "setting": "yeast gene YFL010C, incubated two hours with chemical substance", "value": 1.4},
      {"measurement": "The level of expressed mRNA in the presence of chemical substance/The level of expressed mRNA in the absence of chemical substance", "setting": "yeast gene YFL024C", "value": 0.6},
      {"measurement": "The level of expressed mRNA in the presence of chemical substance/The level of expressed mRNA in the absence of chemical substance", "setting": "yeast gene YFL032W, incubated two hours with chemical substance", "value": 1.1},
      {"measurement": "The level of expressed mRNA in the presence of chemical substance/The level of expressed mRNA in the absence of chemical substance", "setting": "yeast gene YGL037C, incubated two hours with chemical substance", "value": 3.9},
      {"measurement": "The level of expressed mRNA in the presence of chemical substance/The level of expressed mRNA in the absence of chemical substance", "setting": "yeast gene YGL047W, incubated two hours with chemical substance", "value": 1.9},
      {"measurement": "The level of expressed mRNA in the presence of chemical substance/The level of expressed mRNA in the absence of chemical substance", "setting": "yeast gene YGL053W, incubated two hours with chemical substance", "value": 1.3},
      {"measurement": "The level of expressed mRNA in the presence of chemical substance/The level of expressed mRNA in the absence of chemical substance", "setting": "yeast gene YGL121C", "value": 6.1},
      {"measurement": "The level of expressed mRNA in the presence of chemical substance/The level of expressed mRNA in the absence of chemical substance", "setting": "yeast gene YGL218W", "value": 0.1},
      {"measurement": "The level of expressed mRNA in the presence of chemical substance/The level of expressed mRNA in the absence of chemical substance", "setting": "yeast gene YGR101W, incubated two hours with chemical substance", "value": 2.0},
      {"measurement": "The level of expressed mRNA in the presence of chemical substance/The level of expressed mRNA in the absence of chemical substance", "setting": "yeast gene YGR110W", "value": 0.5},
      {"measurement": "The level of expressed mRNA in the presence of chemical substance/The level of expressed mRNA in the absence of chemical substance", "setting": "yeast gene YGR130C, incubated two hours with chemical substance", "value": 0.8},
      {"measurement": "The level of expressed mRNA in the presence of chemical substance/The level of expressed mRNA in the absence of chemical substance", "setting": "yeast gene YGR142W", "value": 2.3},
      {"measurement": "The level of expressed mRNA in the presence of chemical substance/The level of expressed mRNA in the absence of chemical substance", "setting": "yeast gene YGR154C, incubated two hours with chemical substance", "value": 1.5},
      {"measurement": "The level of expressed mRNA in the presence of chemical substance/The level of expressed mRNA in the absence of chemical substance", "setting": "yeast gene YGR221C, incubated two hours with chemical substance", "value": 0.5},
      {"measurement": "The level of expressed mRNA in the presence of chemical substance/The level of expressed mRNA in the absence of chemical substance", "setting": "yeast gene YHR138C, incubated two hours with chemical substance", "value": 1.6},
      {"measurement": "The level of expressed mRNA in the presence of chemical substance/The level of expressed mRNA in the absence of chemical substance", "setting": "yeast gene YHR199C, incubated two hours with chemical substance", "value": 1.9},
      {"measurement": "The level of expressed mRNA in the presence of chemical substance/The level of expressed mRNA in the absence of chemical substance", "setting": "yeast gene YIL023C, incubated two hours with chemical substance", "value": 1.1},
      {"measurement": "The level of expressed mRNA in the presence of chemical substance/The level of expressed mRNA in the absence of chemical substance", "setting": "yeast gene YIL041W, incubated two hours with chemical substance", "value": 1.4},
      {"measurement": "The level of expressed mRNA in the presence of chemical substance/The level of expressed mRNA in the absence of chemical substance", "setting": "yeast gene YIL087C, incubated two hours with chemical substance", "value": 2.8},
      {"measurement": "The level of expressed mRNA in the presence of chemical substance/The level of expressed mRNA in the absence of chemical substance", "setting": "yeast gene YIL089W", "value": 0.7},
      {"measurement": "The level of expressed mRNA in the presence of chemical substance/The level of expressed mRNA in the absence of chemical substance", "setting": "yeast gene YJL057C, incubated two hours with chemical substance", "value": 2.0},
      {"measurement": "The level of expressed mRNA in the presence of chemical substance/The level of expressed mRNA in the absence of chemical substance", "setting": "yeast gene YJL066C, incubated two hours with chemical substance", "value": 0.8},
      {"measurement": "The level of expressed mRNA in the presence of chemical substance/The level of expressed mRNA in the absence of chemical substance", "setting": "yeast gene YJL082W, incubated two hours with chemical substance", "value": 1.0},
      {"measurement": "The level of expressed mRNA in the presence of chemical substance/The level of expressed mRNA in the absence of chemical substance", "setting": "yeast gene YJL151C, incubated two hours with chemical substance", "value": 1.0},
      {"measurement": "The level of expressed mRNA in the presence of chemical substance/The level of expressed mRNA in the absence of chemical substance", "setting": "yeast gene YJL152W, incubated two hours with chemical substance", "value": 1.0},
      {"measurement": "The level of expressed mRNA in the presence of chemical substance/The level of expressed mRNA in the absence of chemical substance", "setting": "yeast gene YJL161W, incubated two hours with chemical substance", "value": 3.7},
      {"measurement": "The level of expressed mRNA in the presence of chemical substance/The level of expressed mRNA in the absence of chemical substance", "setting": "yeast gene YJL171C, incubated two hours with chemical substance", "value": 2.2},
      {"measurement": "The level of expressed mRNA in the presence of chemical substance/The level of expressed mRNA in the absence of chemical substance", "setting": "yeast gene YJR008W, incubated two hours with chemical substance", "value": 1.4},
      {"measurement": "The level of expressed mRNA in the presence of chemical substance/The level of expressed mRNA in the absence of chemical substance", "setting": "yeast gene YJR054W, incubated two hours with chemical substance", "value": 0.7},
      {"measurement": "The level of expressed mRNA in the presence of chemical substance/The level of expressed mRNA in the absence of chemical substance", "setting": "yeast gene YKL071W", "value": 40.3},
      {"measurement": "The level of expressed mRNA in the presence of chemical substance/The level of expressed mRNA in the absence of chemical substance", "setting": "yeast gene YKL086W, incubated two hours with chemical substance", "value": 0.7},
      {"measurement": "The level of expressed mRNA in the presence of chemical substance/The level of expressed mRNA in the absence of chemical substance", "setting": "yeast gene YKL151C, incubated two hours with chemical substance", "value": 2.3}
    ]}
  ]
}
